Laboratory results published in ChEMBL document CHEMBL1212693, “Dorsomorphin inhibits BMP signals required for embryogenesis and iron metabolism” (Nat Chem Biol, 2008).
Calls of active or inactive are those of the source. The calls are words filed in the database; no cut-off is given here.

How the values were obtained:
Danio rerio [1] = organism: Danio rerio; assay: Inhibition of AMPK in zebrafish assessed as embryonic axis dorsalization at 400 uM treated at 3 hrs post-fertilization measured at 48 hrs; design: scale not given: the % may be the effect or the level left
Danio rerio [2] = organism: Danio rerio; assay: Inhibition of AMPK in zebrafish assessed as embryonic axis dorsalization at 200 uM treated at 3 hrs post-fertilization measured at 48 hrs; design: scale not given: the % may be the effect or the level left
Danio rerio [3] = organism: Danio rerio; assay: Inhibition of AMPK in zebrafish assessed as embryonic axis dorsalization at 100 uM treated at 3 hrs post-fertilization measured at 48 hrs; design: scale not given: the % may be the effect or the level left
Danio rerio [4] = organism: Danio rerio; assay: Inhibition of AMPK in zebrafish assessed as embryonic axis dorsalization at 40 uM treated at 3 hrs post-fertilization measured at 48 hrs; design: scale not given: the % may be the effect or the level left
Danio rerio [5] = organism: Danio rerio; assay: Inhibition of AMPK in zebrafish assessed as embryonic axis dorsalization at 20 uM treated at 3 hrs post-fertilization measured at 48 hrs; design: scale not given: the % may be the effect or the level left
Danio rerio [6] = organism: Danio rerio; assay: Inhibition of AMPK in zebrafish assessed as embryonic axis dorsalization at 4 uM treated at 3 hrs post-fertilization measured at 48 hrs; design: scale not given: the % may be the effect or the level left
Danio rerio [7] = organism: Danio rerio; assay: Toxicity in zebrafish assessed as survivability at 4 to 400 uM treated at 3 hrs post-fertilization measured at 48 hrs; format: organism-based; conditions: in vivo
Hep 3B2 = assay: Inhibition of hepcidin mRNA expression in human Hep3B cells at 250 uM after 30 mins by qRT-PCR analysis; format: functional; conditions: 0.5 h
[8] = target: AMP-activated protein kinase, AMPK (Homo sapiens) (UniProt P54646+O43741+P54619+Q9UGJ0+Q9Y478+Q13131+Q9UGI9); assay: Inhibition of AMPK-mediated hepcidin mRNA expression in BMP2-stimulated human Hep3B cells at 250 uM treated 30 mins before BMP2 challenge measured after 16 hrs by qRT-PCR analysis; format: cell-based; conditions: Hep 3B2

**Q.** Which results are given for C=C1C(=O)O[C@H](CCCCCCCC)[C@H]1C(=O)O?
**A.** Activity (Danio rerio [1]): 0%; Activity (Danio rerio [2]): 0%; Activity (Danio rerio [3]): 0%; Activity (Danio rerio [4]): 0%; Activity (Danio rerio [5]): 0%; Activity (Danio rerio [6]): 0%; Activity (Danio rerio [7]): Toxic

**Q.** What does the source list for Nc1ncnc2c1ncn2[C@@H]1O[C@H](CO)[C@@H](O)[C@@H]1O [VIDARABINE]?
**A.** inhibition at 250 µM (Hep 3B2): 40%; inhibition [8]: inactive
